Laboratory results as given in US7407963B2, “Cyclopropane CGRP antagonists, medicaments containing these compounds, and method for the production thereof” (Boehringer Ingelheim Pharma GmbH & Co. KG, priority 1999, dated 2008).

CN(C)CCOc1ccc2c(c1)CN(C1CCN(C(=O)[C@@H]3C[C@H]3C(=O)c3cc(Br)c(N)c(Br)c3)CC1)C(=O)N2 (relative stereo) [Item No. 16, trans-3-{1-[2-(4-amino-3,5-dibromobenzoyl)cyclopropanecarbonyl]-4-piperidinyl}-3,4-dihydro-6-[2-(dimethylamino)ethoxy]-2(1H)-quinazolinone] gave a melting point of 235 °C.
With Nc1c(Br)cc(C(=O)[C@@H]2C[C@H]2C(=O)N2CCC(n3cc(-c4ccccc4C(F)(F)F)[nH]c3=O)CC2)cc1Br (relative stereo) [Item No. 18, trans-1-{1-[2-(4-amino-3,5-dibromobenzoyl)cyclopropanecarbonyl]-4-piperidinyl}-1,3-dihydro-4-[2-(trifluoromethyl)phenyl]-2(2H)-imidazolone] the melting point was 248 °C.
O=C(c1ccc(Cl)cc1)[C@H]1C[C@H]1C(=O)N1CCC(N2Cc3ccccc3NC2=O)CC1 (relative stereo) [Item No. 1, cis-3-{1-[2-(4-chlorobenzoyl)cyclopropanecarbonyl]-4-piperidinyl}-3,4-dihydro-2(1H)-quinazolinone] gave a melting point of 272 to 273 °C.
